Reference: paper PMC7166077, “A systematic strategy for estimating hERG block potency and its implications in a new cardiac safety paradigm” (Toxicology and Applied Pharmacology, 2020)

Target: T1, hERG (Kv11.1 potassium channel) (Homo sapiens, UniProt Q12809)
T1 construct: gene KCNH2
Experiment: automated patch clamp, multi-site, Bayesian hierarchical model

T1 sequence (Q12809 whole entry): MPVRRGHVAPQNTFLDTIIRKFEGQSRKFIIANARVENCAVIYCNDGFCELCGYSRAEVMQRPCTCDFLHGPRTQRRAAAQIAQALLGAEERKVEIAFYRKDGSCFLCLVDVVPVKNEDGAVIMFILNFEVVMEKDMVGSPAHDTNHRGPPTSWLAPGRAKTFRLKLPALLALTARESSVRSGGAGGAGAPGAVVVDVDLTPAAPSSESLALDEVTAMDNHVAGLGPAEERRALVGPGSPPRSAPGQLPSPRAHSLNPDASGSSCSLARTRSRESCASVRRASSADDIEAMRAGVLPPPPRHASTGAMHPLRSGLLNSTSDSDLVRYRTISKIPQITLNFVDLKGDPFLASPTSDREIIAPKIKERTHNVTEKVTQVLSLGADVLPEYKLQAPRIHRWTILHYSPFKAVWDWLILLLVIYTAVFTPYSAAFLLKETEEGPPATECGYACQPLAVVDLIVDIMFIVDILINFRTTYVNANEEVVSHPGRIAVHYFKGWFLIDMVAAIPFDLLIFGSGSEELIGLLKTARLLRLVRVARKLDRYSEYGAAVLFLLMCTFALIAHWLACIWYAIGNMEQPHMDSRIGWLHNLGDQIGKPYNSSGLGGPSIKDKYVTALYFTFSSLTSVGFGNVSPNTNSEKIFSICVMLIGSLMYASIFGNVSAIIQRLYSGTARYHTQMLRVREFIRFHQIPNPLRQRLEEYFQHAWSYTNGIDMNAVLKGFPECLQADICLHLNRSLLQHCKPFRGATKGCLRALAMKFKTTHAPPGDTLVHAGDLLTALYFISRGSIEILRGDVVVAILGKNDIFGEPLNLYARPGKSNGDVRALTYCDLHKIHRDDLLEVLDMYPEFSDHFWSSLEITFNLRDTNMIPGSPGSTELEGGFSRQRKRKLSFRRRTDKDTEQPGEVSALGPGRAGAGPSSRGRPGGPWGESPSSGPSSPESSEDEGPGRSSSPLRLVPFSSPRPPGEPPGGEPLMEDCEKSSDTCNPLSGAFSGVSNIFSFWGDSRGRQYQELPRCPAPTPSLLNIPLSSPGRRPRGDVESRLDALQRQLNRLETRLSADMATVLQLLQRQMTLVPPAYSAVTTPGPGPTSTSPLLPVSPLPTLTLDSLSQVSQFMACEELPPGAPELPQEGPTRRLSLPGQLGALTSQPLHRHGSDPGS

In the case of `CCOC(=O)C1=C(C)NC(C)=C(C(=O)OC)C1c1cccc([N+](=O)[O-])c1` (stereo not shown) [nitrendipine], the IC50 is reported as 20 µM.
